For series [1], the system named is chronic constriction injury model of neuropathic pain. The series can be described thus: CCI model of neuropathic pain, reversal of mechano-allodynia. The class given is in vivo, mice. The note with it: for Max. effect Emax (% ± SEM) / Time of peak protection: ipsilateral hind paw; for Duration of action / Efficacy in reversing NP in vivo (of full reversal at peak effect): CCI model.

Series [2] relates to muscarinic, adrenergic, dopamine, GABA, histamine, opiate, serotonin receptors and transporters. The experiment in a line: Off-target binding panel (receptors and transporters of Table 5). The note with it: for Interactions at other receptors of the off-target panel: 10 μM. The source says: (§1) The results are set forth below.
The target in series [3] is hA1AR (Homo sapiens (Human), UniProt P30542). The experiment in a line: Radioligand binding at hA1AR, CHO cell membranes, [3H]R-PIA. The note with it: read-out: hA1AR % inhibition.
Chain of hA1AR (P30542 whole entry): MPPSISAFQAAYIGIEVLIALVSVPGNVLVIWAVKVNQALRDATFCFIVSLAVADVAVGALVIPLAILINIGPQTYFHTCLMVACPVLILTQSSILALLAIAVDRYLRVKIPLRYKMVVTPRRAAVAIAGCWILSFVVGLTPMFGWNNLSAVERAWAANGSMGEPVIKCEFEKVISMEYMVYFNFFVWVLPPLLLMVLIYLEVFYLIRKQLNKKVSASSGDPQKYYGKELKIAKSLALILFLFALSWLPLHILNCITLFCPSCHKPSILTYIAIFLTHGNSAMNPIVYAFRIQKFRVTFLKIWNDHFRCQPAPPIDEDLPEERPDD
Series [4] concerns the target hA2AAR (Homo sapiens (Human), UniProt P29274). The series can be described thus: Radioligand binding at hA2AAR, HEK293 cell membranes, [3H]CGS21680. The following applies: read-out: hA2AAR % inhibition.
The target of series [5] is Alpha 2B adrenergic receptor (Homo sapiens (Human), UniProt P18089). The experiment in a line: Off-target binding, α2B.
Chain of Alpha 2B adrenergic receptor (P18089 whole entry): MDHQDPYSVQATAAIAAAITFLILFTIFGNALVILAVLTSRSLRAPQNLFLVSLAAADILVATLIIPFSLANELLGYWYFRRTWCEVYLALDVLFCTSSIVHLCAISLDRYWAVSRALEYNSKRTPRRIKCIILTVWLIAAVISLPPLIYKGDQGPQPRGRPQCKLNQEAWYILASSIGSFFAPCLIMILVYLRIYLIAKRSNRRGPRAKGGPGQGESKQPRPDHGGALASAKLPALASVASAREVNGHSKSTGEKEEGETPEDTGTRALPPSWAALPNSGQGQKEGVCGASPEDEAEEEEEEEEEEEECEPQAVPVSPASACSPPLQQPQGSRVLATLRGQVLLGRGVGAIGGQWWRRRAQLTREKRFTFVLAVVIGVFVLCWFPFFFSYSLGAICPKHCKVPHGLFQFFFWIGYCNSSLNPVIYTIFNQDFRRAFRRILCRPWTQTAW
Excerpt: as §1

For series [6], the target named is mA3AR (Mus musculus (Mouse), UniProt Q61618). The experiment in a line: Competition binding at mA3AR, HEK293 cell membranes.
Chain of mA3AR (Q61618 whole entry): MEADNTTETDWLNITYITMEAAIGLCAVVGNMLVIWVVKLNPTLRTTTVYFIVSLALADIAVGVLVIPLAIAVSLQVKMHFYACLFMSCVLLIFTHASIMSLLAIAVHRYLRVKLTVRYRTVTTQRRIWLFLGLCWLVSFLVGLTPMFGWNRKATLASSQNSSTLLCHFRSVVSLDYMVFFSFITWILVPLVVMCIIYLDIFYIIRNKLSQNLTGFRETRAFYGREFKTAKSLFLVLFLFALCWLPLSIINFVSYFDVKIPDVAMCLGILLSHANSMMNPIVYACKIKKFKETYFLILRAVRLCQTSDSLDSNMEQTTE
Series [7] deals with mA2AAR (Mus musculus (Mouse), UniProt Q60613). The experiment in a line: Competition binding at mA2AAR, HEK293 cell membranes. The note with it: read-out: A2AAR % inhibition, mouse data (m) (converted).
Chain of mA2AAR (Q60613 whole entry): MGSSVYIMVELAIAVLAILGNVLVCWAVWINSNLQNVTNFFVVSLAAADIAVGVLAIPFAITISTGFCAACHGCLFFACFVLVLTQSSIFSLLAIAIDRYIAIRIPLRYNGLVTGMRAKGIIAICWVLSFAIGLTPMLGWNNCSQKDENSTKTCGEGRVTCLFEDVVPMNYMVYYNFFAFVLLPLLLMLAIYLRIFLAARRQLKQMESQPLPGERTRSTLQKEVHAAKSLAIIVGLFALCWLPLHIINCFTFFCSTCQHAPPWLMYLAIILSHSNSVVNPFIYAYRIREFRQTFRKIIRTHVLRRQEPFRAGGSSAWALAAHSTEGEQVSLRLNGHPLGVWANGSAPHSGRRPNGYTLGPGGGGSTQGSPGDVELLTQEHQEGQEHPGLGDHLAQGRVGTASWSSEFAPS
Series [8] addresses human DAT (Homo sapiens (Human), UniProt Q01959). The series can be described thus: Radioligand ([3H]WIN35428) binding at the dopamine transporter. The following applies: for Ki: off-target binding.
For series [9], the target named is mA1AR (Mus musculus (Mouse), UniProt Q60612). The series can be described thus: Competition binding at mA1AR, HEK293 cell membranes. The following applies: read-out: A1AR % inhibition, mouse data (m).
Chain of mA1AR (Q60612 whole entry): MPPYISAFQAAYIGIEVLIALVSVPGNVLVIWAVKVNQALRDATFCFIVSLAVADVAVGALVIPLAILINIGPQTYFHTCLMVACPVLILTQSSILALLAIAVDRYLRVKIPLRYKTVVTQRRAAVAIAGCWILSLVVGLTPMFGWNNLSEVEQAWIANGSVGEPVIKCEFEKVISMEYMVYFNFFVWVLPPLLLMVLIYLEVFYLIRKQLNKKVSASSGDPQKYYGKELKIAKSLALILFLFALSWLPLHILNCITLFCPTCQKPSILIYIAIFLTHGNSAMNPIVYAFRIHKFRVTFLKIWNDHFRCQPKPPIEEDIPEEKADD
For series [10], the system named is chronic constriction injury (CCI) model, mechano-allodynia. The experiment in a line: Morphine analgesic tolerance in CCI model, co-administration with A3AR agonist. The class given is in vivo, mice.
Series [11] has as its target r Sigma 2 (Rattus norvegicus (Rat), UniProt Q5U3Y7). The experiment in a line: Off-target binding, Sigma-2. The following applies: for Interaction at Sigma-2: 10 μM; for Ki: off-target binding.
Excerpt: as §1

Series [12] deals with PBR (Homo sapiens (Human), UniProt P30536). The experiment in a line: Off-target binding, PBR. The note with it: for Interaction at PBR: 10 μM; for Ki: off-target binding.
Chain of PBR (P30536 whole entry, species assumed): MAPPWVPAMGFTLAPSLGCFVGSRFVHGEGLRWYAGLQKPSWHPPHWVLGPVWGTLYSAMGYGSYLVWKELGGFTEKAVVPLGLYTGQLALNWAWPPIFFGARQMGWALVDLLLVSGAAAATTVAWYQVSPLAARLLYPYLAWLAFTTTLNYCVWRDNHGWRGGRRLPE
Excerpt: as §1

The target of series [13] is r Sigma 1 (Rattus norvegicus (Rat), UniProt Q9R0C9). The series can be described thus: Off-target binding, Sigma-1. The note with it: 10 μM.
Excerpt: as §1

The test system of series [14] is 5 CYP isozymes (1A2, 2C9, 2C19, 2D6, 3A4). The series can be described thus: Inhibition of 5 CYP isozymes. Type of series: in vitro ADME.
For series [15], the target named is hM2 muscarinic receptor (Homo sapiens (Human), UniProt P08172). The experiment in a line: Off-target binding, M2.
Series [16] concerns the target DOR opiate receptor (Homo sapiens (Human), UniProt P41143). The experiment in a line: Off-target binding, DOR.
Series [17] addresses Alpha 2C adrenergic receptor (Homo sapiens (Human), UniProt P18825). The series can be described thus: Off-target binding, α2C.
Excerpt: as §1

Series [18] has as its target hH4 histamine receptor (Homo sapiens (Human), UniProt Q9H3N8). The experiment in a line: Off-target binding, H4.
Excerpt: as §1

The target of series [19] is h Beta 3 adrenergic receptor (Homo sapiens (Human), UniProt P13945). The series can be described thus: Off-target binding, β3.
Chain of h Beta 3 adrenergic receptor (P13945 whole entry): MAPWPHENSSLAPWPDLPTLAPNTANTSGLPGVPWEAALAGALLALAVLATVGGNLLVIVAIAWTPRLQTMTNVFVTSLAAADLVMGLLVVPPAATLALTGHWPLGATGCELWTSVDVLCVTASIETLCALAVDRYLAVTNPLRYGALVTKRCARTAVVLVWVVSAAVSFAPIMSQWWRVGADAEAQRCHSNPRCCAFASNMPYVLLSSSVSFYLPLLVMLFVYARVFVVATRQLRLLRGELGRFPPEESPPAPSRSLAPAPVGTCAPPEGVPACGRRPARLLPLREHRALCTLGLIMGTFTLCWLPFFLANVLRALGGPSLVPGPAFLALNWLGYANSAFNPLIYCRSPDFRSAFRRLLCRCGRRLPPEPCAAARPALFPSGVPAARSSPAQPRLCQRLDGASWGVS
Series [20] has as its target h5HT1A (Homo sapiens (Human), UniProt P08908). The series can be described thus: Off-target binding, 5HT1A.
Series [21] concerns the target h5HT2B (Homo sapiens (Human), UniProt P41595). The experiment in a line: Off-target binding, 5HT2B.
Series [22] deals with h5HT2C (Homo sapiens, UniProt P28335). The experiment in a line: Off-target binding, 5HT2C.
Chain of h5HT2C (P28335 33-458 limits assumed): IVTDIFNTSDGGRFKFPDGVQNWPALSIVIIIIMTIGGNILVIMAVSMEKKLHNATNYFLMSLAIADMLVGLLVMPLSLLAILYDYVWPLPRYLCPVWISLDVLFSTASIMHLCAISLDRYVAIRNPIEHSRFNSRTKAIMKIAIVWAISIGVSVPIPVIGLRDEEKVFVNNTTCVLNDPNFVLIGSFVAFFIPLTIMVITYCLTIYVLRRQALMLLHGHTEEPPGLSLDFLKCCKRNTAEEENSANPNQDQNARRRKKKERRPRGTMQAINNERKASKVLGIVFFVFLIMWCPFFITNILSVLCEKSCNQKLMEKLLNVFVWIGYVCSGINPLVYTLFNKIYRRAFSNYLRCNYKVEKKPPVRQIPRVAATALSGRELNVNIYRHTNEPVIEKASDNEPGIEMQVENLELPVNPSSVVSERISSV
Series [23] deals with hA3AR (Homo sapiens (Human), UniProt P0DMS8). The series can be described thus: Radioligand binding at hA3AR, CHO cell membranes, [125I]I-AB-MECA.
The nature of series [24]: Stability in simulated fluids (gastric, intestinal). Type of series: in vitro ADME. The source says:
In vitro stability parameters for selected compounds are set forth in Table 6, in accordance with an embodiment of the invention.

The test system of series [25] is morphine-dependent rats. The following applies: naloxone-precipitated withdrawal in morphine-dependent rats; cited from earlier work.
For series [26], the system named is Sprague Dawley rats. The series can be described thus: Toxicity of MRS5698 dosed by gavage. The class given is in vivo, rat. The following applies: up to 150 mg/kg by gavage. As for the experimental part:
The formulation was dosed at up to 150 mg/kg by gavage to Sprague Dawley rats.

“And” between values parts separate entries of the source, which are not always exact repeats. Identical values can stand only once. Like-named read-outs stand apart in the source and are kept apart here.

Chain of r Sigma 2 (Q5U3Y7 whole entry): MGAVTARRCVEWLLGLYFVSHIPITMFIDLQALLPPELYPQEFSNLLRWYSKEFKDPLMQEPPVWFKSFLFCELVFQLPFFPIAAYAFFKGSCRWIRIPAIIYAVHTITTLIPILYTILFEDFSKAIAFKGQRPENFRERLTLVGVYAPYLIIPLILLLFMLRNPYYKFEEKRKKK
Chain of hA2AAR (P29274 whole entry): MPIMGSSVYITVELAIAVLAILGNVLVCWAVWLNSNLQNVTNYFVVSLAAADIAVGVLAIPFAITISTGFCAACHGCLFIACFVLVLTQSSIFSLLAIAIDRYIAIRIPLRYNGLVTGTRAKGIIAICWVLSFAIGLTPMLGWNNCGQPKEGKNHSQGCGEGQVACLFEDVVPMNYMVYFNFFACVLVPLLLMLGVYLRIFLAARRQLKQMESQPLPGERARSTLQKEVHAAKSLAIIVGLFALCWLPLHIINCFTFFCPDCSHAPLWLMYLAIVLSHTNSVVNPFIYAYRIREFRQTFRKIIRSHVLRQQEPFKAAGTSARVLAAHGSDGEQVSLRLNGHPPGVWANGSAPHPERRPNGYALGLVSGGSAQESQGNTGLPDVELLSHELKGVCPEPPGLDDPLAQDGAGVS
Chain of human DAT (Q01959 whole entry): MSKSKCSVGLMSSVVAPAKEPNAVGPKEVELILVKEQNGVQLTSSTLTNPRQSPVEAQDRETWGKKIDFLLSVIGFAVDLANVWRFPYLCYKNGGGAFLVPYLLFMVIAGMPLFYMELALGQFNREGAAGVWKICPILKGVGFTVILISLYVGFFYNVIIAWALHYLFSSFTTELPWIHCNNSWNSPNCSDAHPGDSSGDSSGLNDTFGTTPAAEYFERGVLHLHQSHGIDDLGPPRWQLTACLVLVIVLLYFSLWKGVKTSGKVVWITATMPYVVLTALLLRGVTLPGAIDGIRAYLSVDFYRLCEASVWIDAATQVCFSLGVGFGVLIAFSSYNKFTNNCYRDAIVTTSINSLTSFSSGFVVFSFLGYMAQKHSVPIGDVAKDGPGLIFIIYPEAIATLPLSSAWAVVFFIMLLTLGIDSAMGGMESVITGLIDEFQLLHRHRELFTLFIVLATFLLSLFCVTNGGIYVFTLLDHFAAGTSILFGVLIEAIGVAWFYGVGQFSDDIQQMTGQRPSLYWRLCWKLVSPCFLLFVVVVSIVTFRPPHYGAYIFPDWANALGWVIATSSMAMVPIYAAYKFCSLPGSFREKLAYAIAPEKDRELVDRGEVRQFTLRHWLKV
Chain of hH4 histamine receptor (Q9H3N8 whole entry): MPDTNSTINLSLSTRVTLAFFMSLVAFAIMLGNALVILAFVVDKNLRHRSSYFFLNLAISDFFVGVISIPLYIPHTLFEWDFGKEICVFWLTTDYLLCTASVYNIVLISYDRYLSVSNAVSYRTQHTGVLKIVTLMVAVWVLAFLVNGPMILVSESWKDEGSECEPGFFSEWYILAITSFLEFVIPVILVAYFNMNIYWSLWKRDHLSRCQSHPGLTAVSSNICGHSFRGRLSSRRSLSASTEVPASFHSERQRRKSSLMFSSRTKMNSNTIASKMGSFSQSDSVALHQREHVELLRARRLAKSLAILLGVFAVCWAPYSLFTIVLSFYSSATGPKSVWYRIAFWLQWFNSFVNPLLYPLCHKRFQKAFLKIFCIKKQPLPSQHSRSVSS
Chain of h5HT2B (P41595 whole entry): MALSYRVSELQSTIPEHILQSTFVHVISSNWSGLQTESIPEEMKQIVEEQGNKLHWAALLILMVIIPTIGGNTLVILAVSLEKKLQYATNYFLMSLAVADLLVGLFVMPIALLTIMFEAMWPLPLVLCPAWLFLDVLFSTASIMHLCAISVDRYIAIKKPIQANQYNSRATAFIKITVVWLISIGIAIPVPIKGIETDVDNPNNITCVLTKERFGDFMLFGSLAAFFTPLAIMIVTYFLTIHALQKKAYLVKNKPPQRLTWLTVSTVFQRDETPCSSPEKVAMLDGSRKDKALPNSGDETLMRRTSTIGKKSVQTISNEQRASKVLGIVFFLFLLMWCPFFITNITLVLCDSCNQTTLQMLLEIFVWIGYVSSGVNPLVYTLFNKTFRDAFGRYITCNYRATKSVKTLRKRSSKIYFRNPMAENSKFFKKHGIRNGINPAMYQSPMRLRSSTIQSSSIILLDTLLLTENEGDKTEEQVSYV

`CNC(=O)[C@@]12C[C@@H]1[C@@H](n1cnc3c(NC)nc(C#Cc4cccs4)nc31)[C@H](O)[C@@H]2O` [Compound 8, (1S,2R,3S,4R,5S)-2,3-Dihydroxy-N-methyl-4-(6-(methylamino)-2-(thiophen-2-ylethynyl)-9H-purin-9-yl)bicyclo[3.1.0]hexane-1-carboxamide]: the “Max. effect Emax (% ± SEM)” value in series [1] (3 μmol/kg p.o., mice) is recorded as 100 ± 0.0%. In addition, the “Time of peak protection” value in [1] (3 μmol/kg p.o., mice) is given as 1 h. Besides, the Duration of action in series [1] is about 3 h. In addition, in series [1], the “Efficacy in reversing NP in vivo (of full reversal at peak effect)” value (from here on “Efficacy in reversing NP in vivo”) is reported as about 100%. In series [2], the “Off-target effects compared with MRS5698 and MRS5676” value is “significantly fewer off-target effects”. In [2], the “Interactions at other receptors of the off-target panel” value (“Interactions at other receptors” for short) is recorded as “No interactions at other receptors”. Further, the inhibition (commonly the relative decrease from the control value, in per cent) at 10 µM in series [3] was 25%; in series [4], 20 ± 6%; in [7], 3%; in series [9] it was 47%. In addition, the Ki (commonly the dissociation constant of the complex between target and ligand, obtained from inhibition or displacement) in series [5] (read-out: Ki at α2B) is 5.5 µM; in series [6], 0.043 ± 0.002 µM; in series [8] (read-out: Ki at DAT) it was 0.76 µM; in [8] (read-out: Ki class at DAT), under 1 µM.

As for `CN1CC[C@]23c4c5ccc(O)c4O[C@H]2[C@@H](O)C=C[C@H]3[C@H]1C5` [morphine], the “Reversal of mechano-allodynia by morphine alone on daily dosing” value in series [10] (given daily over 25 days) was “loses its ability to reverse mechano-allodynia”. Besides, the “Reversal of mechano-allodynia by morphine alone” value in series [10] (s.c. injection at day 7) is listed as “near-to-maximal reversal of mechano-allodynia”.

As to `CNC(=O)[C@@]12C[C@@H]1[C@@H](n1cnc3c(NC)nc(C#Cc4cnn(C)c4)nc31)[C@H](O)[C@@H]2O` [Compound 18, (1S,2R,3S,4R,5S)-2,3-Dihydroxy-N-methyl-4-(2-((1-methyl-1H-pyrazol-4-yl)ethynyl)-6-(methylamino)-9H-purin-9-yl)bicyclo[3.1.0]hexane-1-carboxamide], the “Max. effect Emax (% ± SEM)” value in series [1] (3 μmol/kg p.o., mice) came to 87.3 ± 12.7%. In series [1] (3 μmol/kg p.o., mice), the “Time of peak protection” value turned out to be 1 h. Also, the “Efficacy in reversing NP in vivo” value in [1] is listed as about 100%. In series [2], the “Off-target effects compared with MRS5698 and MRS5676” value is given as “significantly fewer off-target effects”. In series [2], the “Interactions at other receptors” value is reported as “No interactions”. For the same compound, in [11], the “Interaction at Sigma-2” value is reported as “weak interactions”. The inhibition at 10 µM in series [3] is 35%; in series [4], 12 ± 6%; in series [7], 16%; in [9] it was 72%. The “Interaction at PBR” value in series [12] is recorded as “weak interactions”. Moreover, the “Interaction at Sigma-1” value in series [13] is “weak interactions”.

`CNC(=O)[C@]12CC1[C@@H](n1cnc3c(NC)nc(C#Cc4ccc(Br)s4)nc31)[C@H](O)C2O` (stereo partly drawn) [compound 100]: the IC50 (in general, the concentration at which inhibition is half-maximal) in series [14] was over 7 µM.

For the compound `CNC(=O)C12CC1C(n1cnc3c(NCc4cccc(Cl)c4)nc(C#Cc4ccc(F)c(F)c4)nc31)C(O)C2O` (single isomer, unassigned) [MRS5698], the Ki in series [15] (read-out: Ki at M2) was 5.4 µM; in [15] (read-out: Ki class at M2), 1 to 10 µM; in [16] (read-out: Ki at DOR) it was 2.5 µM; in [16] (read-out: Ki class at DOR), 1 to 10 µM; in series [17] (read-out: Ki at α2C), 2 µM; in series [17] (read-out: Ki class at α2C), 1 to 10 µM. The Ki in [11] (read-out: Ki at Sigma-2 (σ2)) is 0.91 µM; in series [11] (read-out: Ki class at σ2), under 1 µM; in [5] (read-out: Ki at α2B), 2.9 µM and 4.8 µM; in series [5] (read-out: Ki class at α2B), 1 to 10 µM; in [12] (read-out: Ki at PBR) it was 0.34 µM; in series [12] (read-out: Ki class at PBR) it was under 1 µM. In addition, the Ki in series [18] (read-out: Ki at H4) is 9.4 µM; in [18] (read-out: Ki class at H4) it was 1 to 10 µM; in series [19] (read-out: Ki at β3), 5.8 µM; in series [19] (read-out: Ki class at β3) it was 1 to 10 µM; in series [20] (read-out: Ki at 5HT1A), 7.6 µM; in [20] (read-out: Ki class at 5HT1A), 1 to 10 µM. Also, the Ki was 2.6 µM in [21] (read-out: Ki at 5HT2B), 1 to 10 µM in series [21] (read-out: Ki class at 5HT2B), 5.8 µM in series [22] (Ki at 5HT2C) and 1 to 10 µM in series [22] (Ki class at 5HT2C).

As to `CNC(=O)[C@@]12C[C@@H]1[C@@H](n1cnc3c(/C=C(\O)c4ccc(C(C)(C)C)cc4)nc(C#Cc4ccc(C(C)(C)C)cc4)nc31)C(O)C2O` (stereo in doubt) [Compound 40, (1S,2S,3R,4R,5S)-4-(6-((Z)-2-(4-(tert-Butyl)phenyl)-2-hydroxyvinyl)-2-((4-(tert-butyl)phenyl)ethynyl)-9H-purin-9-yl)-2,3-dihydroxy-N-methylbicyclo[3.1.0]hexane-1-carboxamide], the Ki came to 0.0785 ± 0.0198 µM in series [23] and 0.136 ± 0.009 µM in series [6]. For the same compound, the inhibition at 10 µM in series [3] worked out at 16 ± 5%; in [4], 16 ± 7%.

Consider `CNC(=O)[C@@]12C[C@@H]1[C@@H](n1cnc3c(NC)nc(C#Cc4ccco4)nc31)[C@H](O)[C@@H]2O` [Compound 17, (1S,2R,3S,4R,5S)-4-(2-(Furan-2-ylethynyl)-6-(methylamino)-9H-purin-9-yl)-2,3-dihydroxy-N-methylbicyclo[3.1.0]hexane-1-carboxamide], for which the Ki in series [23] worked out at 0.00062 ± 6e-05 µM; in [6], 0.054 ± 0.011 µM. For the same compound, in series [1] (3 μmol/kg p.o., mice, 3 h), the “Effect at 3 h (% ± SEM)” value was found to be 27.6 ± 1.3%. The “Max. effect Emax (% ± SEM)” value in [1] (3 μmol/kg p.o., mice) was 100 ± 0.0%. For the same compound, the “Time of peak protection” value in series [1] (3 μmol/kg p.o., mice) is recorded as 1 h. Besides, the Duration of action in series [1] was about 3 h. Further, the “Efficacy in reversing NP in vivo” value in series [1] is about 100%. For the same compound, in series [2], the “Off-target effects compared with MRS5698 and MRS5676” value was “significantly fewer off-target effects”. Moreover, the “Interactions at other receptors” value in [2] is listed as “No interactions”. In [11], the “Interaction at Sigma-2” value is reported as “weak interactions”. In addition, the inhibition at 10 µM in [3] is 30%; in series [4] it was 18 ± 9%; in [7] it was 17%; in series [9], 59%. Also, the “Interaction at PBR” value in series [12] is reported as “weak interactions”. For the same compound, the half-life was over 480 min in [24] (simulated gastric fluid, read-out: Stability in simulated fluids (t1/2, min): Gastric) and over 480 min in [24] (simulated intestinal fluid, read-out: Stability in simulated fluids (t1/2, min): Intestinal). Besides, the “Interaction at Sigma-1” value in series [13] was “weak interactions”.

Regarding `CNC(=O)[C@H]1O[C@@H](n2cnc3c(NCc4cccc(I)c4)ncnc32)[C@H](O)[C@@H]1O` [IB-MECA], in [25], the “Effect on opioid dependence” value was “block opioid dependence”.

As to `CNC(=O)[C@@]12C[C@@H]1[C@@H](n1cnc3c(NCc4cccc(Cl)c4)nc(C#Cc4ccc(F)c(F)c4)nc31)C(O)[C@H]2O` (stereo partly drawn) [MRS5698, reference compound], the “Findings after oral dosing” value in [26] is recorded as “No abnormal findings”. Also, in series [2], the “Interactions at other receptors” value is recorded as “No interactions at other receptors”. Also, the “Interaction with DAT” value in series [8] was “does not interact with DAT”. In [10] ([…]), the “Analgesic effect of the A3AR agonist dose per se” value is reported as “no analgesic effects per se”.

(Values after patent US10577368B2 (The United States of America, as represented by the …, priority 2013, dated 2020).)
